# Experimental data published in patent US9572890B2, “Oral formulations of mitochondrially-targeted antioxidants and their preparation and use” (MITOTECH SA, priority 2011, dated 2017).
# Test system: full-thickness dermal wounds of db/db mice
# Assay: Wound healing in db/db diabetic mice
# Assay type: in vivo
# Conditions: SkQ1 in 20% glycerol, 250 nmol/kg per day, 10 to 12 weeks; 7 days after wounding
# Source text: Wound healing was studied in two series using 6 months old C57BLKS-Leprdb/J mice (db/db) homozygous and heterozygous C57BLKS-Leprdb/J mice (db/+) mice. These mice are used as type II diabetes model with impaired wound healing (Michaels, et al. (2007) Wound Repair and Regeneration, 15:665-670).
# The mice were daily administered 250 nmol/kg body weight per day with the pharmaceutical form of SkQ1 in 20% glycerol as described in Example 8) during period of time from 10 weeks to 12 weeks. Control groups of db/db and db/+ mice were not treated with SkQ1. Full-thickness dermal wounds were made under anesthesia of ketamine (80 mg/kg). Animals were kept in plastic cages under standard temperature, light, and feeding regimes. 7 days after wounding, animals were sacrificed by decapitation. The wounds were excised, fixed in 10% formalin in standard PBS buffer, histologically processed, and embedded in paraffin. Histological sections of central part of the wounds were cut and stained with hematoxylin and eosin. The sections were immunohistochemically stained for markers of endothelial cells (CD31), macrophages (f4/80), and myofibroblasts (smooth muscle α-actin). ImageJ software (National Institutes of Health (NIH) http:/rsb.info.nih.gov/ij/) was used to calculate total amount of cells, number of neutrophils, macrophages and vessel density (vessel area/granulation tissue area*100) on the microphotographs of wound sections. For each animal 100 mm^2 of section area was analyzed. Wound epithelization rate was assessed in % as ratio of epithelized wound area to total wound area on tissue section*100. For statistical analysis nonparametric Mann-Whitney U-test was used. Data are shown as means±S.E.M.
compound,measurement,value
CC1=C(C)C(=O)C(CCCCCCCCCC[P+](c2ccccc2)(c2ccccc2)c2ccccc2)=CC1=O [SkQ1],neutrophil infiltration of wounds,decreasing
same,rate of epithelization of wounds,increasing
same,vascularization of wounds (vessel density),increasing
